System: Alopecurus myosuroides
Assay: Pre-emergence herbicidal activity against ALOMY
Format: in vivo
Conditions: dosage 80 g/ha, scored visually after about 3 weeks vs untreated controls
Procedure, shortened: (§1)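 Pre-emergence pot test: seed → soil cover → spray of WP/EC formulation (aq., 0.5% additive, 600 l/ha) on soil surface → greenhouse ~3 wk → visual % activity vs untreated (100% = dead, 0% = as control).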

Compound	Pre-emergence herbicidal activity in % against ALOMY [%]
C[C@]1(C(=O)N[C@@H]2CO[C@H](C(=O)NS(C)(=O)=O)C2)CC(c2cc(F)cc(F)c2)=NO1 [Example I-23]	100
CN(C)C(=O)[C@@H]1C[C@H](NC(=O)[C@@]2(C)CC(c3cc(F)cc(F)c3)=NO2)CO1 [Example I-25]	100

System: Avena fatua
Assay: Pre-emergence herbicidal activity against AVEFA
Format: in vivo
Conditions: dosage 80 g/ha, scored visually after about 3 weeks vs untreated controls
Procedure, shortened: as §1

Compound	Pre-emergence herbicidal activity in % against AVEVA (AVEFA) [%]
C[C@]1(C(=O)N[C@@H]2CO[C@H](C(=O)NS(C)(=O)=O)C2)CC(c2cc(F)cc(F)c2)=NO1 [Example I-23]	100
CN(C)C(=O)[C@@H]1C[C@H](NC(=O)[C@@]2(C)CC(c3cc(F)cc(F)c3)=NO2)CO1 [Example I-25]	90

System: Echinochloa crus-galli
Assay: Pre-emergence herbicidal activity against ECHCG
Format: in vivo
Conditions: dosage 80 g/ha, scored visually after about 3 weeks vs untreated controls
Description: (§2) 1. Pre-emergence herbicidal action against harmful plants and crop plant compatibility Seeds of monocotyledonous and dicotyledonous weed plants and crop plants are placed in plastic or wood fiber pots and covered with soil. The compounds of the invention, formulated in the form of wettable powders (WP) or as emulsion concentrates (EC), are then applied onto the surface of the covering soil as aqueous suspension or emulsion with addition of 0.5% additive at a water application rate of 600 l/ha (converted). After the treatment, the pots are placed in a greenhouse and kept under good growth conditions for the trial plants. After about 3 weeks, the effect of the preparations is scored visually in comparison with untreated controls as percentages. For example, 100% activity=the plants have died, 0% activity=like control plants. [table]

Compound	Pre-emergence herbicidal activity in % against ECHCG [%]
C[C@]1(C(=O)N[C@@H]2CO[C@H](C(=O)NS(C)(=O)=O)C2)CC(c2cc(F)cc(F)c2)=NO1 [Example I-23]	100
CN(C)C(=O)[C@@H]1C[C@H](NC(=O)[C@@]2(C)CC(c3cc(F)cc(F)c3)=NO2)CO1 [Example I-25]	80

System: Lolium rigidum
Assay: Pre-emergence herbicidal activity against LOLRI
Format: in vivo
Conditions: dosage 80 g/ha, scored visually after about 3 weeks vs untreated controls
Description: as §2

Compound	Pre-emergence herbicidal activity in % against LOLRI [%]
C[C@]1(C(=O)N[C@@H]2CO[C@H](C(=O)NS(C)(=O)=O)C2)CC(c2cc(F)cc(F)c2)=NO1 [Example I-23]	100
CN(C)C(=O)[C@@H]1C[C@H](NC(=O)[C@@]2(C)CC(c3cc(F)cc(F)c3)=NO2)CO1 [Example I-25]	100

System: Setaria viridis
Assay: Pre-emergence herbicidal activity against SETVI
Format: in vivo
Conditions: dosage 80 g/ha, scored visually after about 3 weeks vs untreated controls
Description: as §2

Compound	Pre-emergence herbicidal activity in % against SETVI [%]
C[C@]1(C(=O)N[C@@H]2CO[C@H](C(=O)NS(C)(=O)=O)C2)CC(c2cc(F)cc(F)c2)=NO1 [Example I-23]	100
CN(C)C(=O)[C@@H]1C[C@H](NC(=O)[C@@]2(C)CC(c3cc(F)cc(F)c3)=NO2)CO1 [Example I-25]	100

System: Amaranthus retroflexus
Assay: Pre-emergence herbicidal activity against AMARE
Format: in vivo
Conditions: dosage 80 g/ha, scored visually after about 3 weeks vs untreated controls
Description: as §2

Compound	Pre-emergence herbicidal activity in % against AMARE [%]
C[C@]1(C(=O)N[C@@H]2CO[C@H](C(=O)NS(C)(=O)=O)C2)CC(c2cc(F)cc(F)c2)=NO1 [Example I-23]	100
CN(C)C(=O)[C@@H]1C[C@H](NC(=O)[C@@]2(C)CC(c3cc(F)cc(F)c3)=NO2)CO1 [Example I-25]	100

System: Pharbitis purpurea
Assay: Pre-emergence herbicidal activity against PHBPU
Format: in vivo
Conditions: dosage 80 g/ha, scored visually after about 3 weeks vs untreated controls
Description: as §2

Compound	Pre-emergence herbicidal activity in % against PHBPU [%]
C[C@]1(C(=O)N[C@@H]2CO[C@H](C(=O)NS(C)(=O)=O)C2)CC(c2cc(F)cc(F)c2)=NO1 [Example I-23]	90
CN(C)C(=O)[C@@H]1C[C@H](NC(=O)[C@@]2(C)CC(c3cc(F)cc(F)c3)=NO2)CO1 [Example I-25]	90

System: Polygonum convolvulus
Assay: Pre-emergence herbicidal activity against POLCO
Format: in vivo
Conditions: dosage 80 g/ha, scored visually after about 3 weeks vs untreated controls
Procedure, shortened: as §1

Compound	Pre-emergence herbicidal activity in % against POLCO [%]
C[C@]1(C(=O)N[C@@H]2CO[C@H](C(=O)NS(C)(=O)=O)C2)CC(c2cc(F)cc(F)c2)=NO1 [Example I-23]	100
CN(C)C(=O)[C@@H]1C[C@H](NC(=O)[C@@]2(C)CC(c3cc(F)cc(F)c3)=NO2)CO1 [Example I-25]	100

System: Stellaria media
Assay: Pre-emergence herbicidal activity against STEME
Format: in vivo
Conditions: dosage 80 g/ha, scored visually after about 3 weeks vs untreated controls
Procedure, shortened: as §1

Compound	Pre-emergence herbicidal activity in % against STEME [%]
C[C@]1(C(=O)N[C@@H]2CO[C@H](C(=O)NS(C)(=O)=O)C2)CC(c2cc(F)cc(F)c2)=NO1 [Example I-23]	100
CN(C)C(=O)[C@@H]1C[C@H](NC(=O)[C@@]2(C)CC(c3cc(F)cc(F)c3)=NO2)CO1 [Example I-25]	100

System: Viola tricolor
Assay: Pre-emergence herbicidal activity against VIOTR
Format: in vivo
Conditions: dosage 80 g/ha, scored visually after about 3 weeks vs untreated controls
Description: as §2

Compound	Pre-emergence herbicidal activity in % against VIOTR [%]
C[C@]1(C(=O)N[C@@H]2CO[C@H](C(=O)NS(C)(=O)=O)C2)CC(c2cc(F)cc(F)c2)=NO1 [Example I-23]	90
CN(C)C(=O)[C@@H]1C[C@H](NC(=O)[C@@]2(C)CC(c3cc(F)cc(F)c3)=NO2)CO1 [Example I-25]	100

System: Veronica persica
Assay: Pre-emergence herbicidal activity against VERPE
Format: in vivo
Conditions: dosage 80 g/ha
Procedure, shortened: as §1

Compound	Pre-emergence herbicidal activity in % against VERPE [%]
C[C@]1(C(=O)N[C@@H]2CO[C@H](C(=O)NS(C)(=O)=O)C2)CC(c2cc(F)cc(F)c2)=NO1 [Example I-23]	90
CN(C)C(=O)[C@@H]1C[C@H](NC(=O)[C@@]2(C)CC(c3cc(F)cc(F)c3)=NO2)CO1 [Example I-25]	90

System: Hordeum murinum
Assay: Pre-emergence herbicidal activity against HORMU
Format: in vivo
Conditions: dosage 80 g/ha
Description: as §2

Compound	Pre-emergence herbicidal activity in % against HORMU [%]
C[C@]1(C(=O)N[C@@H]2CO[C@H](C(=O)NS(C)(=O)=O)C2)CC(c2cc(F)cc(F)c2)=NO1 [Example I-23]	90

System: Alopecurus myosuroides
Assay: Post-emergence herbicidal activity against ALOMY
Format: in vivo
Conditions: dosage 320 g/ha, rated visually after about 3 weeks
Procedure, shortened: (§3)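 Weeds grown in sandy loam in greenhouse, treated at one-leaf stage (2–3 weeks after sowing) by spraying WP or EC formulations as aqueous suspension/emulsion with 0.5% additive at 600 l/ha. Activity rated visually about 3 weeks later versus untreated controls (100% = plants dead, 0% = like control).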

Compound	Post-emergence herbicidal activity in % against ALOMY [%]
C[C@]1(C(=O)N[C@@H]2CO[C@H](C(=O)NS(C)(=O)=O)C2)CC(c2cc(F)cc(F)c2)=NO1 [Example I-23]	90
CN(C)C(=O)[C@@H]1C[C@H](NC(=O)[C@@]2(C)CC(c3cc(F)cc(F)c3)=NO2)CO1 [Example I-25]	100

System: Avena fatua
Assay: Post-emergence herbicidal activity against AVEFA
Format: in vivo
Conditions: dosage 320 g/ha, rated visually after about 3 weeks
Procedure, shortened: as §3

Compound	Post-emergence herbicidal activity in % against AVEFA [%]
C[C@]1(C(=O)N[C@@H]2CO[C@H](C(=O)NS(C)(=O)=O)C2)CC(c2cc(F)cc(F)c2)=NO1 [Example I-23]	100
CN(C)C(=O)[C@@H]1C[C@H](NC(=O)[C@@]2(C)CC(c3cc(F)cc(F)c3)=NO2)CO1 [Example I-25]	90

System: Echinochloa crus-galli
Assay: Post-emergence herbicidal activity against ECHCG
Format: in vivo
Conditions: dosage 320 g/ha, rated visually after about 3 weeks
Procedure, shortened: as §3

Compound	Post-emergence herbicidal activity in % against ECHCG [%]
C[C@]1(C(=O)N[C@@H]2CO[C@H](C(=O)NS(C)(=O)=O)C2)CC(c2cc(F)cc(F)c2)=NO1 [Example I-23]	90

System: Lolium rigidum
Assay: Post-emergence herbicidal activity against LOLRI
Format: in vivo
Conditions: dosage 320 g/ha, rated visually after about 3 weeks
Procedure, shortened: as §3

Compound	Post-emergence herbicidal activity in % against LOLRI [%]
C[C@]1(C(=O)N[C@@H]2CO[C@H](C(=O)NS(C)(=O)=O)C2)CC(c2cc(F)cc(F)c2)=NO1 [Example I-23]	100
CN(C)C(=O)[C@@H]1C[C@H](NC(=O)[C@@]2(C)CC(c3cc(F)cc(F)c3)=NO2)CO1 [Example I-25]	100

System: Setaria viridis
Assay: Post-emergence herbicidal activity against SETVI
Format: in vivo
Conditions: dosage 320 g/ha, rated visually after about 3 weeks
Procedure, shortened: as §3

Compound	Post-emergence herbicidal activity in % against SETVI [%]
C[C@]1(C(=O)N[C@@H]2CO[C@H](C(=O)NS(C)(=O)=O)C2)CC(c2cc(F)cc(F)c2)=NO1 [Example I-23]	80
CN(C)C(=O)[C@@H]1C[C@H](NC(=O)[C@@]2(C)CC(c3cc(F)cc(F)c3)=NO2)CO1 [Example I-25]	80

System: Abutilon theophrasti
Assay: Post-emergence herbicidal activity against ABUTH
Format: in vivo
Conditions: dosage 320 g/ha, rated visually after about 3 weeks
Procedure, shortened: as §3

Compound	Post-emergence herbicidal activity in % against ABUTH [%]
C[C@]1(C(=O)N[C@@H]2CO[C@H](C(=O)NS(C)(=O)=O)C2)CC(c2cc(F)cc(F)c2)=NO1 [Example I-23]	80
CN(C)C(=O)[C@@H]1C[C@H](NC(=O)[C@@]2(C)CC(c3cc(F)cc(F)c3)=NO2)CO1 [Example I-25]	80

System: Amaranthus retroflexus
Assay: Post-emergence herbicidal activity against AMARE
Format: in vivo
Conditions: dosage 320 g/ha, rated visually after about 3 weeks
Procedure, shortened: as §3

Compound	Post-emergence herbicidal activity in % against AMARE [%]
C[C@]1(C(=O)N[C@@H]2CO[C@H](C(=O)NS(C)(=O)=O)C2)CC(c2cc(F)cc(F)c2)=NO1 [Example I-23]	80
CN(C)C(=O)[C@@H]1C[C@H](NC(=O)[C@@]2(C)CC(c3cc(F)cc(F)c3)=NO2)CO1 [Example I-25]	80

System: Pharbitis purpurea
Assay: Post-emergence herbicidal activity against PHBPU
Format: in vivo
Conditions: dosage 320 g/ha, rated visually after about 3 weeks
Procedure, shortened: as §3

Compound	Post-emergence herbicidal activity in % against PHBPU [%]
C[C@]1(C(=O)N[C@@H]2CO[C@H](C(=O)NS(C)(=O)=O)C2)CC(c2cc(F)cc(F)c2)=NO1 [Example I-23]	80
CN(C)C(=O)[C@@H]1C[C@H](NC(=O)[C@@]2(C)CC(c3cc(F)cc(F)c3)=NO2)CO1 [Example I-25]	90

System: Polygonum convolvulus
Assay: Post-emergence herbicidal activity against POLCO
Format: in vivo
Conditions: dosage 320 g/ha, rated visually after about 3 weeks
Procedure, shortened: as §3

Compound	Post-emergence herbicidal activity in % against POLCO [%]
C[C@]1(C(=O)N[C@@H]2CO[C@H](C(=O)NS(C)(=O)=O)C2)CC(c2cc(F)cc(F)c2)=NO1 [Example I-23]	90
CN(C)C(=O)[C@@H]1C[C@H](NC(=O)[C@@]2(C)CC(c3cc(F)cc(F)c3)=NO2)CO1 [Example I-25]	80

System: Stellaria media
Assay: Post-emergence herbicidal activity against STEME
Format: in vivo
Conditions: dosage 320 g/ha, rated visually after about 3 weeks
Procedure, shortened: as §3

Compound	Post-emergence herbicidal activity in % against STEME [%]
C[C@]1(C(=O)N[C@@H]2CO[C@H](C(=O)NS(C)(=O)=O)C2)CC(c2cc(F)cc(F)c2)=NO1 [Example I-23]	90
CN(C)C(=O)[C@@H]1C[C@H](NC(=O)[C@@]2(C)CC(c3cc(F)cc(F)c3)=NO2)CO1 [Example I-25]	90

System: Viola tricolor
Assay: Post-emergence herbicidal activity against VIOTR
Format: in vivo
Conditions: dosage 320 g/ha, rated visually after about 3 weeks
Procedure, shortened: as §3

Compound	Post-emergence herbicidal activity in % against VIOTR [%]
C[C@]1(C(=O)N[C@@H]2CO[C@H](C(=O)NS(C)(=O)=O)C2)CC(c2cc(F)cc(F)c2)=NO1 [Example I-23]	80

System: Veronica persica
Assay: Post-emergence herbicidal activity against VERPE
Format: in vivo
Conditions: dosage 320 g/ha, rated visually after about 3 weeks
Procedure, shortened: as §3

Compound	Post-emergence herbicidal activity in % against VERPE [%]
C[C@]1(C(=O)N[C@@H]2CO[C@H](C(=O)NS(C)(=O)=O)C2)CC(c2cc(F)cc(F)c2)=NO1 [Example I-23]	80
CN(C)C(=O)[C@@H]1C[C@H](NC(=O)[C@@]2(C)CC(c3cc(F)cc(F)c3)=NO2)CO1 [Example I-25]	80

System: Hordeum murinum
Assay: Post-emergence herbicidal activity against HORMU
Format: in vivo
Conditions: dosage 320 g/ha, rated visually after about 3 weeks
Procedure, shortened: as §3

Compound	Post-emergence herbicidal activity in % against HORMU [%]
C[C@]1(C(=O)N[C@@H]2CO[C@H](C(=O)NS(C)(=O)=O)C2)CC(c2cc(F)cc(F)c2)=NO1 [Example I-23]	100
CN(C)C(=O)[C@@H]1C[C@H](NC(=O)[C@@]2(C)CC(c3cc(F)cc(F)c3)=NO2)CO1 [Example I-25]	90
